Consider seven molecules from patent US20240326697A1, “SOLID FORMS OF SELECTIVE ANDROGEN RECEPTOR MODULATORS” (priority 2007, published 2024).

What all share (assay type): physicochemical
Data set [1] can be described thus: Relative stability of polymorphic forms under dry conditions (heating, micronization). To be noted: heating to 110° C. in the presence of D. How it is done:
(§1) Thermal analysis was carried out with a Perkin Elmer DSC7 with the following experimental conditions: 3 to 6 mg sample mass, closed gold sample pan, temperature range −50° C. to 120° C., heating rate 20 K/min. The samples were weighed in air or dry N2 atmosphere. Additional thermal analysis was conducted using a TA Instruments Q1000 DSC using hermetic aluminum pans under various conditions.
Thus forms A and B″ can be considered to be practically stable at ambient temperature. […] Micronization of the polymorph A particles under dry conditions also produced ˜25% conversion to B″.

A short description of data set [2]: Dynamic vapor sorption (DVS). To be noted: 25° C. On the procedure:
Dynamic vapor sorption quantification relates the mass of water absorbed and subsequently desorbed during the crystallization process. In order to define whether batch P1, P2 and P4 are hydrated polymorphs, DVS measurements were conducted (FIG. 9). A sample (13 to 14 mg) was placed on a Pt pan, and the sample was allowed to equilibrate at 25° C./50% r.h. before starting a pre-defined humidity program (1.0 hours 50%, from 50% r.h. to 95% r.h.: 5% r.h./hour, 10 hours at 95% r.h., from 95% r.h. to 0% r.h.: 5% r.h./hour, 10 hours at 0% r.h., from 0% r.h. to 50% r.h.: 5% r.h./hour, 1 hours at 50% r.h.

Data set [3] in a line: Relative stability of toluene solvate in toluene / solubility in toluene. On the procedure:
Recrystallization of S-1 from a solvent/antisolvent system that uses toluene as the antisolvent produces the toluene solvate. Toluene solvate has a melting point near 100° C. with the enthalpy of melting 70±5 J/g.

Data set [4] is described as follows: Measurement of the approximate solubility (solvent added in steps to the solid). Particulars: ethyl acetate/n-heptane 1:2 v/v, 23° C. (B′: solid form transformation into solid form A). How it is done:
To determine the approximate solubility at room temperature, the solvent was added in steps to the solid material. After every addition, the sample was well stirred. The addition of solvent was continued until complete dissolution or until 15 ml of solvent was added.

Data set [5] is described as follows: Water solubility of solid forms A and B′ (suspension shaken, filtered, HPLC; residue by Raman). Particulars: 22° C.; for Solid residue: Raman, rough estimate; for solubility: mean of two measurements (±standard deviation). On the procedure:
During the following experiments: suspension equilibration, precipitation experiment, recrystallization, relative stability experiments and water solubility experiment, a filtration step was conducted. Centrifugal filter devices: Ultrafree-CL (0.22 la,m), Millipore; Centrifuge type or Eppendorf 5804R were used at a temperature of 22° C. and centrifugation program of 2 min 3000 rpm.
HPLC was used to analyse the purity of S-1. HP 1090M HPLC machine was used with the following conditions: • Column: Symmetry Shield RP18, 3.9×150 mm, 5 μm • Column temperature: 35° C. • Injection volume: 10 μL • Solvent: acetonitrile+water 1:1 v/v • Mobile phase A: 0.1% TFA-water • Mobile phase B: 0.1% TFA-acetonitrile • Flow rate: 1 mL/min. • Detection: UV at 271 nm • Run time: 21 min. • Retention time (S-1): 10.7 min.
Suspensions of the solid forms (25 or 50 mg in 3.5 or 7.0 ml bidistilled water) were shaken (800 rpm) and filtered after 0.5 h, 1.5 h, 4 h and 20 h. After filtration the solid residue was checked by Raman spectroscopy and the concentration in the clear solution was determined by HPLC.

Data set [6] can be described thus: Suspension equilibration experiments. On the procedure: Suspension equilibration experiments were carried out with 81-128 mg of the compound. The suspensions were stirred with a magnetic stirrer. The samples obtained after filtration were air dried at ambient temperature for a short time only to prevent possible desolvation of labile hydrates or solvates.
Data set [7] can be described thus: Relative stability of polymorphic forms under humid conditions (storage, DSC). Particulars: 50° C./75% RH as well as ambient/75% RH, ambient/100% RH, 30° C./75% RH and 50° C./0% RH. On the procedure: as §1
Polymorph A stays stable in its A form for at least 7 days under storage conditions of ambient temperature/75% RH (Relative Humidity), ambient temperature/100% RH, 30° C./75% RH and 50° C./0% RH.
In fact, polymorph D in the presence of moisture acts as the seed for the crystallization process and drives the transformation of polymorphs A and B′ into D, similar to its role in seeding the A to D crystallization in dry conditions. […] The amount of polymorph D initially added to the sample is very small that it isn't detectable by the DSC with heating rate of 10° C./min. […] The transformation process is speeded up in FIG. 17G (b) by storing the sample in water at 50° C. […] Further work has shown that the A and B′ convert to D in the presence of moisture at lower temperatures also albeit at slower rates.

Values joined by “and” are separate entries in the source; they are usually repeats but may differ in a detail not shown here. Equal entries are not always repeated. Marks after values point to notes of the source that are not given here.

As for `C[C@](O)(COc1ccc(C#N)cc1)C(=O)Nc1ccc(C#N)c(C(F)(F)F)c1` [Form B″, (S)-N-(4-cyano-3-(trifluoromethyl)phenyl)-3-(4-cyanophenoxy)-2-hydroxy-2-methylpropanamide], the “solid form change on heating” value in data set [1] was “rearrange into D”.

On to `C[C@](O)(COc1ccc(C#N)cc1)C(=O)Nc1ccc(C#N)c(C(F)(F)F)c1` [Form S-1-P1, (S)-N-(4-cyano-3-(trifluoromethyl)phenyl)-3-(4-cyanophenoxy)-2-hydroxy-2-methylpropanamide], for which, in data set [2], the “maximum water content at 93% r.h.” value is 1.5% and the “water content at 50% r.h.” value was “water content at 50% r.h.: 0.4%”.

Regarding `C[C@](O)(COc1ccc(C#N)cc1)C(=O)Nc1ccc(C#N)c(C(F)(F)F)c1` [Form S-1-P4, (S)-N-(4-cyano-3-(trifluoromethyl)phenyl)-3-(4-cyanophenoxy)-2-hydroxy-2-methylpropanamide], in data set [2], the “maximum water content at 94% r.h.” value is “r.h.: ~2.4%” and the “water content at 50% r.h.” value is given as “water content at 50% r.h.: ~0.8%”.

`C[C@](O)(COc1ccc(C#N)cc1)C(=O)Nc1ccc(C#N)c(C(F)(F)F)c1` [Form S-1, (S)-N-(4-cyano-3-(trifluoromethyl)phenyl)-3-(4-cyanophenoxy)-2-hydroxy-2-methylpropanamide]: the solubility in data set [3] (toluene, organic solvent or mixture) was < 2000 µg/mL.

Take `C[C@](O)(COc1ccc(C#N)cc1)C(=O)Nc1ccc(C#N)c(C(F)(F)F)c1` [Form B′, (S)-N-(4-cyano-3-(trifluoromethyl)phenyl)-3-(4-cyanophenoxy)-2-hydroxy-2-methylpropanamide]: the solubility is >9 solid form mg/ml in data set [4]; 27.4 ± 0.9 mg/1000 ml in data set [5] (water, suspension equilibration time 0.5 h); 27.3 ± 0.8 mg/1000 ml in data set [5] (water, suspension equilibration time 1.5 h); 27.3±0.8 mg/1000 ml in data set [5] (water, suspension equilibration time 1.5 h, listed as B′); 25.6 ± 0.1 mg/1000 ml in data set [5] (water, suspension equilibration time 4.0 h); 26.7 ± 0.3 ^c) mg/1000 ml in data set [5] (water, suspension equilibration time 20 h). Also, in data set [5] (stated as embodiment), the solubility in water is 20 to 30 µg/mL and 23 to 27 µg/mL. For the same molecule, the Solid residue entry in data set [5] (water, 0.5 h) is reported as “B′”; in data set [5] (water, 1.5 h) it was “B′”; in data set [5] (water, 4.0 h), “B′”; in data set [5] (water, 20 h), “B′”. Also, in data set [5] (water, 20 h suspension equilibration), the “pH of the solution” value was “d) pH of the solution: 8.7”. In addition, the Form produced entry in data set [6] (ethyl acetate + n-heptane 1:2 v/v 81/1.7 mg/ml, stirred 2 h/23° C.) is “transformed into solid form A”; in data set [6] (ethyl acetate + n-pentane 1:2 v/v 101/1.0 mg/ml, stirred 22 h/23° C.), “transformed into solid form A”. In data set [2] (listed as solid form B′), the “maximum water content at 94% r.h.” value is “approx. 2.4%”.

`C[C@](O)(COc1ccc(C#N)cc1)C(=O)Nc1ccc(C#N)c(C(F)(F)F)c1` [Form D, (S)-N-(4-cyano-3-(trifluoromethyl)phenyl)-3-(4-cyanophenoxy)-2-hydroxy-2-methylpropanamide]: the results for the “solid form stability on storage” value in data set [7] and in data set [7] (listed as Polymorph D) were “stable” and “remains stable”, respectively. The “transformation in toluene suspension” value in data set [3] (sonication of the suspension for 10 minutes) is listed as “partial transformation to the toluene solvate”; in data set [3] (suspension (50 mg/mL) in toluene for 4 days, both at ambient temperature and 50° C.), “no noticeable transformation from form D to the toluene solvate”.

`C[C@](O)(COc1ccc(C#N)cc1)C(=O)Nc1ccc(C#N)c(C(F)(F)F)c1` [Form S-1-P2, (S)-N-(4-cyano-3-(trifluoromethyl)phenyl)-3-(4-cyanophenoxy)-2-hydroxy-2-methylpropanamide]: in data set [2], the “maximum water content at 95% r.h.” value was 0.6% and the “water content at 50% r.h.” value is given as “water content at 50% r.h.: 0.3%”.
